In PubChem BioAssay (NCI):
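Briefly, cells in 96-well plates were exposed to five compound concentrations for 48 h, and endpoints were estimated by linear interpolation. TGI is the concentration that stops growth completely.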

Legend:
Assay in all cases: growth of human tumour cells (NCI), 48 h
ACHN renal = test system: ACHN renal
MCF7 breast = test system: MCF7 breast
SF-268 CNS = test system: SF-268 CNS
UACC-257 melanoma = test system: UACC-257 melanoma
HCC-2998 colon = test system: HCC-2998 colon
CAKI-1 renal = test system: CAKI-1 renal
OVCAR-3 ovarian = test system: OVCAR-3 ovarian
HCT-116 colon = test system: HCT-116 colon
SN12C renal = test system: SN12C renal
RPMI-8226 leukemia = test system: RPMI-8226 leukemia
SNB-19 CNS = test system: SNB-19 CNS
786-0 renal = test system: 786-0 renal
NCI-H460 lung = test system: NCI-H460 lung
SK-MEL-28 melanoma = test system: SK-MEL-28 melanoma
HCT-15 colon = test system: HCT-15 colon
MOLT-4 leukemia = test system: MOLT-4 leukemia
UACC-62 melanoma = test system: UACC-62 melanoma
MDA-MB-231 breast = test system: MDA-MB-231 breast
HT29 colon = test system: HT29 colon
SK-MEL-5 melanoma = test system: SK-MEL-5 melanoma
CCRF-CEM leukemia = test system: CCRF-CEM leukemia
NCI-H522 lung = test system: NCI-H522 lung
HOP-62 NSCLC = test system: HOP-62 NSCLC
T-47D breast = test system: T-47D breast
NCI-H226 lung = test system: NCI-H226 lung
RXF 393 renal = test system: RXF 393 renal
SW-620 colon = test system: SW-620 colon
BT-549 breast = test system: BT-549 breast
UO-31 renal = test system: UO-31 renal
EKVX NSCLC = test system: EKVX NSCLC
LOX IMVI melanoma = test system: LOX IMVI melanoma
KM12 colon = test system: KM12 colon
MDA-MB-435 = test system: MDA-MB-435
U251 CNS = test system: U251 CNS
IGROV1 ovarian = test system: IGROV1 ovarian
SF-539 CNS = test system: SF-539 CNS
NCI-H23 lung = test system: NCI-H23 lung
HOP-92 NSCLC = test system: HOP-92 NSCLC
SF-295 CNS = test system: SF-295 CNS
COLO 205 colon = test system: COLO 205 colon
A549 NSCLC = test system: A549 NSCLC
NCI/ADR-RES ovarian = test system: NCI/ADR-RES ovarian
PC-3 prostate = test system: PC-3 prostate
HS 578T breast = test system: HS 578T breast
SNB-75 CNS = test system: SNB-75 CNS
OVCAR-4 ovarian = test system: OVCAR-4 ovarian
OVCAR-8 ovarian = test system: OVCAR-8 ovarian
MALME-3M melanoma = test system: MALME-3M melanoma
DU-145 prostate = test system: DU-145 prostate
SK-MEL-2 melanoma = test system: SK-MEL-2 melanoma
OVCAR-5 ovarian = test system: OVCAR-5 ovarian
HL-60(TB) leukemia = test system: HL-60(TB) leukemia
M14 melanoma = test system: M14 melanoma
A498 renal = test system: A498 renal
K-562 leukemia = test system: K-562 leukemia
TK-10 renal = test system: TK-10 renal
SR leukemia = test system: SR leukemia
SK-OV-3 ovarian = test system: SK-OV-3 ovarian

Measured: TGI

Nc1ccc2c(c1)C(=O)c1ccccc1-2
91 µM: HOP-92 NSCLC
75.1 µM: MOLT-4 leukemia
83.5 µM: BT-549 breast
not listed: SK-OV-3 ovarian
> 100 µM: all other assays above

O=C(Nn1c(-c2ccccc2)nc2ccccc2c1=O)c1ccccn1
not listed: MCF7 breast | CAKI-1 renal | HCT-15 colon | NCI-H226 lung | SK-MEL-2 melanoma | OVCAR-5 ovarian
> 100 µM: all other assays above
